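Results reflect a 48-hour exposure of cells in 96-well plates to compound at five concentrations. GI50 = concentration required for 50% inhibition of growth.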 Calls of active or inactive are those of the source. No stated cut-off is given here; in the data, active = GI50 up to about 1.1 µM and inactive = higher.

Eleven compounds from ChEMBL document CHEMBL1201862, “PubChem BioAssay data set” (2004) can be followed below.

Test in all cases: DTP human tumour cell line panel, 48 h
In assay [1] the test system is ACHN.
Assay [2] concerns BT-549.
Assay [3] relates to DU-145.
For assay [4], the system named is HCC 2998.
The test system of assay [5] is HL-60.
Assay [6] has as its system HOP-62.
For assay [7], the system named is HOP-92.
The subject of assay [8] is MCF7.
The test system of assay [9] is MDA-MB-231.
Assay [10] concerns MDA-MB-435.
Assay [11] relates to OVCAR-4.
Assay [12] concerns OVCAR-8.
For assay [13], the system named is RXF 393.
Assay [14] relates to SF-268.
The subject of assay [15] is SF-539.
The subject of assay [16] is SK-MEL-2.
Assay [17] deals with T47D.
In assay [18] the test system is TK-10.
Assay [19] deals with NCI-H226.
The subject of assay [20] is SR.

Turning to `CCOC(=O)[C@@]12NN=N[C@@H]1[C@H]1CO[C@H](c3ccccc3)N1C2=O`, the GI50 (usually the concentration that inhibits growth by half) is 13.4 µM (inactive) in [1]; 11.7 µM (inactive) in assay [2]; 13.8 µM (inactive) in assay [3]; 12.9 µM (inactive) in assay [4]; 17.3 µM (inactive) in [5]; 14.5 µM (inactive) in assay [6]. Also, the GI50 in assay [7] was 1.64 µM (inactive); in [8], 6.34 µM (inactive); in [9], 12.2 µM (inactive); in [10], 11.1 µM (inactive); in assay [11], 16.5 µM (inactive); in assay [12] it was 5.68 µM (inactive). Also, the GI50 was 3.58 µM (inactive) in [13]; 11 µM (inactive) in [14]; 11.2 µM (inactive) in assay [15]; 7.21 µM (inactive) in [16]; 5.22 µM (inactive) in [17]; 16.8 µM (inactive) in [18].

In the case of `O=c1[nH]c(=O)n(C2OC(CO)C(O)C2O)c2ccsc12` (configuration not stated), the GI50 in [1], in [2], in assay [3], in assay [4], in [5] and in assay [6] was > 100 µM (inactive) in each case. Further, the GI50 in [7], in assay [8], in assay [9], in assay [10], in assay [19] and in [11] was > 100 µM (inactive) in each case. In addition, the GI50 in assay [12] was > 10 µM (inactive); in assay [13] it was > 100 µM (inactive); in [14], > 100 µM (inactive); in [15], > 100 µM (inactive); in [16], > 100 µM (inactive); in [20], > 100 µM (inactive). Besides, the GI50 in assay [18] is > 100 µM (inactive).

For the compound `CC(=O)O[C@H]1CC[C@@H](OC(C)=O)[C@H]2[C@H](O)[C@H](O)[C@@H]1n1c(=O)n(-c3ccccc3)c(=O)n12`, the GI50 in [1], in assay [2], in assay [3], in [5], in [6] and in assay [7] was > 100 µM (inactive) each time. For the same compound, the GI50 in assay [8], in [9], in assay [10], in [19], in [11] and in assay [12] was > 100 µM (inactive) throughout. The GI50 in [13], in assay [14], in assay [15], in [16], in [17] and in assay [18] was > 100 µM (inactive) throughout.

Consider `O=C1C=CC2(C=C1)C[C@H](NC(=O)OCc1ccccc1)C(=O)O2`, for which the GI50 in assay [1] is 15.8 µM (inactive); in [2], 18 µM (inactive); in assay [3] it was 30.5 µM (inactive); in assay [4], 19.7 µM (inactive); in assay [5], 2.04 µM (inactive); in [6], > 54.2 µM (inactive). The GI50 in assay [7] was 16.3 µM (inactive); in assay [8] it was 11.2 µM (inactive); in assay [9] it was 17.5 µM (inactive); in [19], 62.4 µM (inactive); in [11], 18.2 µM (inactive); in [12], 16 µM (inactive). The GI50 in assay [13] was 10.2 µM (inactive); in assay [14] it was 17.2 µM (inactive); in assay [15] it was 22.4 µM (inactive); in [16], 19.3 µM (inactive); in [20], 1.08 µM (active); in assay [17] it was 15.9 µM (inactive). Also, the GI50 in assay [18] is 15.2 µM (inactive).

With `Cc1ccc(-n2cc(-c3ccc(Cl)cc3)c(C#N)c2N)cc1`, the GI50 in [1] was 18.7 µM (inactive); in [2], 18.2 µM (inactive); in [3], 25.2 µM (inactive); in assay [4], 14.9 µM (inactive); in assay [5] it was 4.1 µM (inactive); in assay [6] it was 17.9 µM (inactive). For the same compound, the GI50 was 17 µM (inactive) in assay [7]; 14.6 µM (inactive) in assay [8]; 14.7 µM (inactive) in assay [9]; 17.3 µM (inactive) in [10]; 12.8 µM (inactive) in assay [19]; 14.3 µM (inactive) in [11]. Further, the GI50 in [12] is 15.9 µM (inactive); in assay [13] it was 10.5 µM (inactive); in [14], 18.7 µM (inactive); in assay [15] it was 16.6 µM (inactive); in assay [16], 15.2 µM (inactive); in assay [20], 6.67 µM (inactive). Moreover, the GI50 in assay [18] is 14.7 µM (inactive).

On to `C#C[C@]1(O)CC[C@H]2[C@@H]3CCC4=C/C(=N/CCOC(=O)c5cccc6c(=O)c7ccccc7[nH]c56)CC[C@@H]4[C@H]3CC[C@@]21C`, for which the GI50 in assay [1] was 40.4 µM (inactive); in assay [2] it was 32.3 µM (inactive); in [3], 32.4 µM (inactive); in assay [5], 23.1 µM (inactive); in [6], 37.2 µM (inactive); in assay [7], 23.1 µM (inactive). In addition, the GI50 was 26.1 µM (inactive) in [8]; 15.7 µM (inactive) in [9]; 31.8 µM (inactive) in [10]; 76.2 µM (inactive) in [19]; 32.7 µM (inactive) in assay [11]; 21 µM (inactive) in assay [12]. In addition, the GI50 is 5.62 µM (inactive) in assay [13]; 53.6 µM (inactive) in assay [14]; 30.1 µM (inactive) in assay [16]; 20.5 µM (inactive) in assay [17]; 45.8 µM (inactive) in [18].

Turning to `CCOC(=O)c1c(SCCO)n(-c2ccccc2)c(=S)n(-c2ccccc2)c1=O`, the GI50 in assay [1], in assay [2], in assay [3], in [5], in [6] and in [7] was > 100 µM (inactive) throughout. Besides, the GI50 in [8], in assay [10], in [19], in [11], in assay [12] and in [14] was > 100 µM (inactive) each time. The GI50 in assay [16], in assay [20], in assay [17] and in assay [18] was > 100 µM (inactive) in each case.

Regarding `Nc1sccc1S(=O)(=O)c1ccsc1N`, the GI50 in assay [1], in assay [2], in [3], in assay [4], in assay [6] and in [7] was > 100 µM (inactive) each time. For the same compound, the GI50 in assay [8], in [9], in assay [10], in assay [19], in assay [11] and in assay [12] was > 100 µM (inactive) throughout. For the same compound, the GI50 in assay [14], in [15], in assay [16], in [17] and in assay [18] was > 100 µM (inactive) throughout.

For the compound `CC(=O)O[C@H]1[C@@H](N2CCCCC2)C[C@H]2[C@@H]3CC=C4C[C@@H](N5CCCC5)CC[C@]4(C)[C@H]3CC[C@@]21C`, the GI50 in [1] is > 100 µM (inactive); in assay [2], > 100 µM (inactive); in [4], 14.3 µM (inactive); in [5], 24.9 µM (inactive); in [6], 49.8 µM (inactive); in assay [7], 91.8 µM (inactive). The GI50 in assay [8] is > 100 µM (inactive); in [9] it was > 100 µM (inactive); in assay [10] it was 28.6 µM (inactive); in assay [19], > 100 µM (inactive); in [11], > 100 µM (inactive); in [12], > 100 µM (inactive). Besides, the GI50 was 32.7 µM (inactive) in assay [13]; > 100 µM (inactive) in assay [14]; 17.8 µM (inactive) in [15]; > 100 µM (inactive) in assay [16]; 2.74 µM (inactive) in [20]; > 100 µM (inactive) in [17]. Further, in [18], the GI50 was > 100 µM (inactive).

As for `N#Cc1c(N2CCC(O)C2)c2ccccc2n2c1nc1ccccc12` (configuration not stated), the GI50 was 18.2 µM (inactive) in assay [1]; 46.9 µM (inactive) in assay [2]; > 100 µM (inactive) in assay [3]; > 100 µM (inactive) in [4]; > 100 µM (inactive) in assay [5]; 18.6 µM (inactive) in assay [6]. Besides, the GI50 in assay [7] is 41.1 µM (inactive); in assay [8], > 100 µM (inactive); in [9], 19.4 µM (inactive); in [10], > 100 µM (inactive); in assay [11], 20.5 µM (inactive); in assay [12], 45.7 µM (inactive). Further, the GI50 in assay [14] was 43.7 µM (inactive); in assay [15], 54.8 µM (inactive); in assay [16], 43.4 µM (inactive); in [17] it was 64.3 µM (inactive); in assay [18], 51.1 µM (inactive).

In the case of `Cc1ccc(/N=N/c2cc(=O)[nH]c(=O)[nH]2)cc1C`, the GI50 in [1] was 11 µM (inactive); in assay [2], 13.7 µM (inactive); in assay [3], 14.7 µM (inactive); in assay [4], 5.01 µM (inactive); in assay [5] it was 3.01 µM (inactive); in assay [6], 17.7 µM (inactive). The GI50 in assay [7] was 16.4 µM (inactive); in assay [8] it was 12.3 µM (inactive); in assay [9], 11.9 µM (inactive); in assay [10], 11.2 µM (inactive); in assay [19], 19.1 µM (inactive); in [11], 13.9 µM (inactive). In addition, the GI50 was 14.6 µM (inactive) in assay [12]; 5.04 µM (inactive) in [13]; 19.8 µM (inactive) in assay [14]; 11.2 µM (inactive) in [15]; 3.6 µM (inactive) in assay [20]; 19.4 µM (inactive) in assay [18].
